Target: human HPK1 (MAP4K1) (Homo sapiens (Human), UniProt Q92918)
Experiment: HPK1 IC50 Assay (TR-FRET peptide phosphorylation)
Format: biochemical
Protocol: The enzymatic activity of human HPK1 (MAP4K1) was monitored in a biochemical assay in the presence or absence of compounds and using a synthetic peptide substrate. An increase in phosphorylation of the peptide by HPK1 was indicative of its kinase activity.
Recombinant HPK1 kinase domain produced via baculovirus infection of insect cells was obtained from Proteros (Proteros Biostructures #PR-0322) and was pre-activated in the presence of 2 mM ATP (Sigma-Aldrich, cat #GE27-2056-01) and 2 mM magnesium chloride for 16 hours at 4° C. The protein reaction mixture was then loaded to a desalting column (Thermo Fisher Scientific, Cat #89889) to remove excess ATP. HPK1 was eluted with buffer containing 20 mM Tris (2-Amino-2-(hydroxymethyl)propane-1,3-diol) pH 8.0, 150 mM NaCl, 2 mM dithiothreitol and 5% glycerol, and was frozen at −80° C. for later use. HPK1 dual phosphorylation was confirmed by mass spectrometry.
Ten nanoliters of test compounds dissolved in DMSO at various concentrations were dispensed into a 384-well ProxiPlate (PerkinElmer #6008289). Five microliters of a solution of recombinant HPK1 diluted in HPK1 kinase assay buffer (50 mM BES [N,N-Bis(2-hydroxyethyl)-2-aminoethanesulfonic acid], pH 7.0; 10 mM magnesium chloride; 0.01% Triton X-100; 1 mM dithiothreitol; 0.01% bovine serum albumin; 0.1 mM sodium orthovanadate) was added to the compound-containing plate and was incubated for 15 minutes at 25° C. Five microliters of a mixture of ATP (Sigma-Aldrich #A6559) and peptide substrate STK S1 (Cisbio #61ST1BLC) diluted in HPK1 kinase assay buffer was then added to start the reaction. Final concentrations were 0.15 nM for HPK1, 10 μM for ATP, and 1 μM for the STK S1 peptide substrate. The reaction mixture was incubated at 25° C. for 3 hours and was stopped with the addition of 10 μl of an EDTA (Ethylenediaminetetraacetic acid)-containing detection buffer (Cisbio #62SDBRDF) supplemented with Europium cryptate-labeled anti-phospho-serine/threonine antibodies (Cisbio #62ST1PEJ) and XL665-labeled streptavidin (Cisbio #610SAXLG). The mixture was incubated for 16 hours at room temperature and peptide phosphorylation was measured by time-resolved fluorescence energy transfer (665 nm/620 nm) on an Envision plate reader (PerkinElmer).
Data in Table 1 were normalized based on positive (staurosporine) and negative (DMSO) controls. Least squares curve fittings were performed using a four-parameter variable slope nonlinear regression model. IC50 is defined as the concentration of compound required to inhibit 50% of maximum phosphorylation. IC50 values from multiple experiments were averaged by geometric mean and the standard deviation was calculated.

[1] = recombinant HPK1 kinase domain 0.15 nM, 10 μM ATP, 1 μM STK S1 peptide, geometric mean of multiple experiments
[2] = 0.15 nM HPK1, 10 μM ATP, 1 μM STK S1 peptide substrate, geometric mean

Chain of human HPK1 (MAP4K1) (Q92918 17-274): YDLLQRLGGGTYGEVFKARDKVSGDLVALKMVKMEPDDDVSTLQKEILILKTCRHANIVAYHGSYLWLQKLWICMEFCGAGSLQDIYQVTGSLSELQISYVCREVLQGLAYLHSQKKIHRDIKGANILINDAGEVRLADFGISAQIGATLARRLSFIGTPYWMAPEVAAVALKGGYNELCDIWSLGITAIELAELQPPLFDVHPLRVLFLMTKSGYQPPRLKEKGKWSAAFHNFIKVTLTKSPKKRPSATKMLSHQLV

Row | Compound | IC50 [1] | IC50 [2]
1 | Cc1c(C(=O)NC2(C(F)F)CC2)cc(Nc2nc(-c3ccc4c(c3)N([C@H]3C[C@@](C)(N5CCCCC5)C3)CC4(C)C)cc3ncn(C(C)C)c23)c(F)c1F [Example 237, N-(1-(Difluoromethyl)cyclopropyl)-5-((6-(3,3-dimethyl-1-((1s,3s)-3-methyl-3-(piperidin-1-yl)cyclobutyl)indolin-6-yl)-3-isopropyl-3H-imidazo[4,5-c]pyridin-4-yl)amino)-3,4-difluoro-2-methylbenzamide] | 0.3 nM | 
2 | Cc1cc(F)c(Nc2nc(-c3ccc4c(c3)N([C@H]3C[C@@H](N5CCCCC5)C3)C(=O)C4(C)C)cc3ncn(C(C)C)c23)cc1C(=O)NC(C)C [Example 176] | 0.2 nM | 
3 | CC(C)NC(=O)c1cc(Nc2nc(-c3ccc4c(c3)N([C@H]3C[C@@H](N5CCCCC5)C3)C(=O)C4(C)C)cc3ncn(C(C)C)c23)ccc1Cl [Example 115] | 0.1 nM | 
4 | CC(C)n1cnc2cc(-c3ccc4c(c3)N([C@H]3C[C@@](C)(N5CCCCC5)C3)C(=O)C43CC3)nc(Nc3cc(C(=O)NCC(F)F)c(Cl)c(F)c3F)c21 [Example 275, 2-chloro-N-(2,2-difluoroethyl)-3,4-difluoro-5-((3-isopropyl-6-(1′-((1s,3s)-3-methyl-3-(piperidin-1-yl)cyclobutyl)-2′-oxospiro[cyclopropane-1,3′-indolin]-6′-yl)-3H-imidazo[4,5-c]pyridin-4-yl)amino)benzamide] |  | 0.06 nM
5 | CNC(=O)c1cc(Nc2nc(-c3cnc4c(c3)N([C@H]3C[C@@H](N5CCCCC5)C3)C(=O)C4(C)C)cc3ncn(C(C)C)c23)c(F)cc1C [Example 111] | 0.3 nM | 
6 | Cc1ccc(Nc2nc(-c3ccc4c(c3)N([C@H]3C[C@@H](N5CCCCC5)C3)C(=O)C4(C)C)cc3ncn(C(C)C)c23)cc1C(=O)NC1CCC1 [Example 2] | 0.1 nM | 
7 | Cc1ccc(Nc2nc(-c3ccc4c(c3)N([C@H]3C[C@@H](N5CCC[C@@H](O)C5)C3)C(=O)C4(C)C)cc3ncn(C4CC4)c23)cc1C(N)=O [Example 37] | 0.1 nM | 
8 | CCCNC(=O)c1cc(Nc2nc(-c3ccc4c(c3)N([C@H]3C[C@@H](N5CCCCC5)C3)C(=O)C4(C)C)cc3ncn(C(C)C)c23)ccc1C [Example 24] | 0.08 nM | 
9 | CNC(=O)c1cc(Nc2nc(-c3ccc4c(c3)N([C@H]3C[C@@H](N5C6COCC5C6)C3)C(=O)C4(C)C)cc3ncn(C(C)C)c23)c(F)cc1C [Example 9] | 0.1 nM | 
10 | Cc1c(C(=O)NCC(F)F)cc(Nc2nc(-c3cc4c(nc3F)C(C)(C)C(=O)N4[C@H]3C[C@@](C)(N4CCCCC4)C3)cc3ncn(C(C)C)c23)c(F)c1F [Example 269, N-(2,2-difluoroethyl)-3,4-difluoro-5-((6-(5-fluoro-3,3-dimethyl-1-((1s,3s)-3-methyl-3-(piperidin-1-yl)cyclobutyl)-2-oxo-2,3-dihydro-1H-pyrrolo[3,2-b]pyridin-6-yl)-3-isopropyl-3H-imidazo[4,5-c]pyridin-4-yl)amino)-2-methylbenzamide] |  | 0.07 nM
11 | CCNC(=O)c1cc(Nc2nc(-c3ccc4c(c3)N([C@H]3C[C@@H](N5CCCCC5)C3)C(=O)C43CCN(C(C)=O)CC3)cc3ncn(C(C)C)c23)ccc1C [Example 130] | 0.1 nM | 
12 | CNC(=O)c1cc(Nc2nc(-c3ccc4c(c3)N([C@H]3C[C@@H](N5CC6C(C5)C6(F)F)C3)C(=O)C4(C)C)cc3ncn(C(C)C)c23)ccc1C (stereo partly drawn) [Example 7] | 0.4 nM | 
13 | Cc1cc(F)c(Nc2nc(-c3cnc4c(c3)N([C@H]3C[C@@H](N5CCCCC5)C3)C(=O)C4(C)C)cc3ncn(C(C)C)c23)cc1C(=O)NC1(CF)CC1 [Example 134] | 0.3 nM | 
14 | CNC(=O)c1cc(Nc2nc(-c3ccc4c(c3)N([C@H]3C[C@@H](N5CC(C)(C)C5)C3)C(=O)C4(C)C)cc3ncn(C(C)C)c23)c(F)cc1C [Example 120] | 0.2 nM | 
15 | CNC(=O)c1ccc(F)c(Nc2nc(-c3ccc4c(c3)N([C@H]3C[C@@H](N5CCCCC5)C3)C(=O)C43CCN(C(C)=O)CC3)cc3ncn(C4CC4)c23)c1 [Example 97] | 0.4 nM | 

From patent publication US11203591B2, “Substituted 6-azabenzimidazole compounds” (Gilead Sciences, Inc., priority 2018, dated 2021)
